Pest or weed control, inhibition of growth and melting point data for 22 molecules are collected here from patent publication US10501425B2, “Microbiocidal oxadiazole derivatives” (SYNGENTA PARTICIPATIONS AG, priority 2015, dated 2019).

The subject of one data set is Phakopsora pachyrhizi. Description: Phakopsora pachyrhizi / soybean / leaf disc preventative (Asian soybean rust). It counts as in vivo. The following applies: foliar, 200 ppm in the applied formulation, soybean leaf disks, compared to untreated, read-out: disease control. An outline of the steps:
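Read-out is percent disease control relative to untreated check discs, assessed once untreated discs show adequate disease, 12 to 14 days after application. Compounds, tested at 200 ppm in the applied formulation, are sprayed onto soybean leaf discs one day before inoculation with a spore suspension.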

Data set [1] relates to Puccinia recondita f. Sp. Tritici. Put plainly: Puccinia recondita f. sp. tritici / wheat / leaf disc preventative (brown rust). It counts as in vivo. The following applies: foliar, 200 ppm in the applied formulation, wheat leaf segments cv. Kanzler, preventative (inoculated 1 day after application), compared to untreated, read-out: disease control. In outline: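 Single evaluation 7–9 d after spraying: % disease control compared with untreated leaf segments. Protocol: cv. Kanzler segments, preventative spray at 200 ppm, spore inoculation at day 1, 19° C., 75% rh, 12 h light/12 h dark.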

For data set [2] the test system is unchanged. Put plainly: Puccinia recondita f. sp. tritici / wheat / leaf disc curative (brown rust). It counts as in vivo. The following applies: foliar, 24 h, 200 ppm in the applied formulation, wheat leaf segments cv. Kanzler, curative (applied 1 day after inoculation), compared to untreated, read-out: disease control. In outline:
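Compound applied 1 day after spore inoculation of wheat cv. Kanzler leaf segments on agar (dark, 19 °C, 75% RH before treatment). After further incubation under 12 h light/12 h dark at 19 °C and 75% RH, disease control relative to untreated segments rated 6–8 days post-application.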

The test system of data set [3] is Glomerella lacenarium (Colletotrichum lagenarium). Description: Glomerella lagenarium liquid culture / cucumber / preventative (anthracnose). It counts as cell-based. The following applies: Colletotrichum orbiculare; 20 ppm in the applied formulation; liquid culture (PDB), growth inhibition measured photometrically 3 to 4 days after application; compared to untreated; read-out: disease control. An outline of the steps: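 Conidia from cryogenic storage were mixed into potato dextrose broth. This was added to compound diluted from DMSO into 0.025% Tween20, tested at 20 ppm. Plates were incubated in the dark at 24 °C and 96% relative humidity, and growth was read photometrically after 2–7 days as % activity versus untreated check.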

Several values for one entry are separate records, joined by “and”; a condition that tells them apart may be missing. Identical values can stand only once.

As for `COCC(=O)NCc1ccc(-c2noc(C(F)(F)F)n2)cc1` [Compound 1.25, 2-methoxy-N-[[4-[5-(trifluoromethyl)-1,2,4-oxadiazol-3-yl]phenyl]methyl]acetamide], the melting point lay in the range of 127 to 128 °C. Moreover, the pest or weed control at 200 ppm with Phakopsora pachyrhizi was at least 80%. Further, the pest or weed control at 200 ppm in data set [1] is at least 80%. The pest or weed control at 200 ppm in data set [2] is at least 80%. Further, the inhibition of growth at 20 ppm in data set [3] is at least 80%.

As to `CCC(=O)NCc1ccc(-c2noc(C(F)(F)F)n2)cc1F` [Compound 1.26, N-[[2-fluoro-4-[5-(trifluoromethyl)-1,2,4-oxadiazol-3-yl]phenyl]methyl]propanamide], the melting point is 99 to 110 °C. Further, the pest or weed control at 200 ppm in the data set with Phakopsora pachyrhizi was at least 80%. In addition, the pest or weed control at 200 ppm in data set [1] is at least 80%. In addition, the pest or weed control at 200 ppm in data set [2] was at least 80%. In data set [3], the inhibition of growth at 20 ppm is at least 80%.

`O=C(CO)NCc1ccc(-c2noc(C(F)(F)F)n2)cc1` [Compound 1.27, 2-hydroxy-N-[[4-[5-(trifluoromethyl)-1,2,4-oxadiazol-3-yl]phenyl]methyl]acetamide] registered a melting point of 107 to 112 °C. The pest or weed control at 200 ppm in data set [1] is at least 80%. For the same molecule, in data set [2], the pest or weed control at 200 ppm is at least 80%. Moreover, the inhibition of growth at 20 ppm in data set [3] was at least 80%.

In the case of `CC(O)C(=O)NCc1ccc(-c2noc(C(F)(F)F)n2)cc1` (centres unmarked) [Compound 1.28, 2-hydroxy-N-[[4-[5-(trifluoromethyl)-1,2,4-oxadiazol-3-yl]phenyl]methyl]propanamide], the melting point was in the range of 90 to 94 °C. In the data set with Phakopsora pachyrhizi, the pest or weed control at 200 ppm is at least 80%. Besides, the pest or weed control at 200 ppm in data set [1] was at least 80%. In addition, in data set [2], the pest or weed control at 200 ppm is at least 80%. Further, the inhibition of growth at 20 ppm in data set [3] is at least 80%.

For the molecule `CCC(=O)NCc1ccc(-c2noc(C(F)(F)F)n2)cc1OC` [Compound 1.30, N-[[2-methoxy-4-[5-(trifluoromethyl)-1,2,4-oxadiazol-3-yl]phenyl]methyl]propanamide], the melting point lay in the range of 163 to 165 °C.

In the case of `CCC(=O)NCc1ccc(-c2noc(C(F)(F)F)n2)cc1C(F)(F)F` [Compound 1.31, N-[[2-(trifluoromethyl)-4-[5-(trifluoromethyl)-1,2,4-oxadiazol-3-yl]phenyl]methyl]propanamide], the melting point was in the range of 100 to 102 °C.

Take `CCC(=O)NCc1ccc(-c2noc(C(F)(F)F)n2)cc1Cl` [Compound 1.32, N-[[2-chloro-4-[5-(trifluoromethyl)-1,2,4-oxadiazol-3-yl]phenyl]methyl]propanamide]: the melting point is 126 to 130 °C. For the same molecule, the pest or weed control at 200 ppm in the data set on Phakopsora pachyrhizi is at least 80%. Moreover, the pest or weed control at 200 ppm in data set [1] is at least 80%. In data set [3], the inhibition of growth at 20 ppm is at least 80%.

`CCC(=O)NCc1ccc(-c2noc(C(F)(F)F)n2)cc1C` [Compound 1.81, N-[[2-methyl-4-[5-(trifluoromethyl)-1,2,4-oxadiazol-3-yl]phenyl]methyl]propanamide] showed a melting point of 140 to 143 °C. The inhibition of growth at 20 ppm in data set [3] is at least 80%.

`COCCC(=O)NC1(c2ccc(-c3noc(C(F)(F)F)n3)cc2)CC1` [Compound 1.98, 3-methoxy-N-[1-[4-[5-(trifluoromethyl)-1,2,4-oxadiazol-3-yl]phenyl]cyclopropyl]propanamide] gave a melting point of 113 to 118 °C. In data set [1], the pest or weed control at 200 ppm is at least 80%. In data set [2], the pest or weed control at 200 ppm is at least 80%. For the same molecule, the inhibition of growth at 20 ppm in data set [3] is at least 80%.

Consider `CC(C)(O)C(=O)NCc1ccc(-c2noc(C(F)(F)F)n2)cc1` [Compound 1.104, 2-hydroxy-2-methyl-N-[[4-[5-(trifluoromethyl)-1,2,4-oxadiazol-3-yl]phenyl]methyl]propanamide], for which the melting point lay in the range of 95 to 98 °C. For the same molecule, the pest or weed control at 200 ppm in data set [1] was at least 80%. The pest or weed control at 200 ppm in data set [2] is at least 80%. Moreover, the inhibition of growth at 20 ppm in data set [3] is at least 80%.

The molecule `COC(C)C(=O)NCc1ccc(-c2noc(C(F)(F)F)n2)nc1` (centres unmarked) [Compound 1.105, 2-methoxy-N-[[6-[5-(trifluoromethyl)-1,2,4-oxadiazol-3-yl]-3-pyridyl]methyl]propanamide] gave a melting point of 99 to 103 °C. Further, the pest or weed control at 200 ppm in data set [1] is at least 80%. The pest or weed control at 200 ppm in data set [2] is at least 80%. The inhibition of growth at 20 ppm in data set [3] was at least 80%.

On to `CC(C)C(=O)NCc1ccc(-c2noc(C(F)(F)F)n2)nc1` [Compound 1.106, 2-methyl-N-[[6-[5-(trifluoromethyl)-1,2,4-oxadiazol-3-yl]-3-pyridyl]methyl]propanamide], for which the melting point is 151 to 153 °C. The pest or weed control at 200 ppm in data set [1] was at least 80%. Also, the pest or weed control at 200 ppm in data set [2] is at least 80%.

Turning to `CC(C)(C)OC(=O)NCCc1ccc(-c2noc(C(F)(F)F)n2)cc1` [Compound 2.1, tert-butyl N-[2-[4-[5-(trifluoromethyl)-1,2,4-oxadiazol-3-yl]phenyl]ethyl]carbamate], the melting point is 81 to 83 °C and 81 to 83.1 °C. The pest or weed control at 200 ppm in data set [1] is at least 80%. The pest or weed control at 200 ppm in data set [2] was at least 80%. The inhibition of growth at 20 ppm in data set [3] is at least 80%.

As to `CCOCCOC(=O)NCc1ccc(-c2noc(C(F)(F)F)n2)cc1C(F)(F)F` [Compound 2.2, 2-ethoxyethyl N-[[2-(trifluoromethyl)-4-[5-(trifluoromethyl)-1,2,4-oxadiazol-3-yl]phenyl]methyl]carbamate], the melting point was in the range of 60 to 66 °C. Besides, the inhibition of growth at 20 ppm in data set [3] was at least 80%.

Turning to `CCCNC(=O)NCc1ccc(-c2noc(C(F)(F)F)n2)cc1` [Compound 3.6, 1-propyl-3-[[4-[5-(trifluoromethyl)-1,2,4-oxadiazol-3-yl]phenyl]methyl]urea], the melting point is 174.1 to 176.4 °C. In the data set on Phakopsora pachyrhizi, the pest or weed control at 200 ppm is at least 80%. Moreover, the pest or weed control at 200 ppm in data set [1] is at least 80%. In data set [3], the inhibition of growth at 20 ppm is at least 80%.

For the molecule `CC(C)NC(=O)NCc1ccc(-c2noc(C(F)(F)F)n2)cc1` [Compound 3.9, 1-isopropyl-3-[[4-[5-(trifluoromethyl)-1,2,4-oxadiazol-3-yl]phenyl]methyl]urea], the pest or weed control at 200 ppm (with Phakopsora pachyrhizi; in data set [1]; in data set [2]) was at least 80% throughout. Further, the inhibition of growth at 20 ppm in data set [3] was at least 80%.

In the case of `CCNC(=O)NCc1ccc(-c2noc(C(F)(F)F)n2)cc1` [Compound 3.10, 1-ethyl-3-[[4-[5-(trifluoromethyl)-1,2,4-oxadiazol-3-yl]phenyl]methyl]urea], the pest or weed control at 200 ppm (in the data set on Phakopsora pachyrhizi; in data set [1]; in data set [2]) was at least 80% throughout. Moreover, the inhibition of growth at 20 ppm in data set [3] was at least 80%.

As for `CCN(CC)C(=O)NCc1ccc(-c2noc(C(F)(F)F)n2)cc1` [Compound 3.12, 1,1-diethyl-3-[[4-[5-(trifluoromethyl)-1,2,4-oxadiazol-3-yl]phenyl]methyl]urea], the pest or weed control at 200 ppm (in the data set on Phakopsora pachyrhizi; in data set [1]; in data set [2]) was at least 80% in each case. The inhibition of growth at 20 ppm in data set [3] is at least 80%.

In the case of `CCN(C)C(=O)NCc1ccc(-c2noc(C(F)(F)F)n2)cc1` [Compound 3.13, 1-ethyl-1-methyl-3-[[4-[5-(trifluoromethyl)-1,2,4-oxadiazol-3-yl]phenyl]methyl]urea], the pest or weed control at 200 ppm (in the data set on Phakopsora pachyrhizi; in data set [1]; in data set [2]) was at least 80% in each case. Moreover, in data set [3], the inhibition of growth at 20 ppm was at least 80%.

For the molecule `CCONC(=O)NCc1ccc(-c2noc(C(F)(F)F)n2)cc1` [Compound 3.14, 1-ethoxy-3-[[4-[5-(trifluoromethyl)-1,2,4-oxadiazol-3-yl]phenyl]methyl]urea], the pest or weed control at 200 ppm (with Phakopsora pachyrhizi; in data set [1]; in data set [2]) was at least 80% throughout. In data set [3], the inhibition of growth at 20 ppm was at least 80%.

With `C=CCNC(=O)NCc1ccc(-c2noc(C(F)(F)F)n2)cc1` [Compound 3.16, 1-allyl-3-[[4-[5-(trifluoromethyl)-1,2,4-oxadiazol-3-yl]phenyl]methyl]urea], the pest or weed control at 200 ppm (in the data set on Phakopsora pachyrhizi; in data set [1]; in data set [2]) was at least 80% in each case. Besides, the inhibition of growth at 20 ppm in data set [3] is at least 80%.

Turning to `CONC(=O)NCc1ccc(-c2noc(C(F)(F)F)n2)cc1` [Compound 3.17, 1-methoxy-3-[[4-[5-(trifluoromethyl)-1,2,4-oxadiazol-3-yl]phenyl]methyl]urea], the pest or weed control at 200 ppm (in the data set on Phakopsora pachyrhizi; in data set [1]; in data set [2]) was at least 80% in each case. Besides, the inhibition of growth at 20 ppm in data set [3] is at least 80%.
